# The supplement of paper PMC10307832
# Columns and labels:
# Assay in all cases: relative viability (nuclei count vs DMSO), 5 days (fraction); higher = more cells survive
# Zosuquidar + Trametinib = compound: O[C@@H](COc1cccc2ncccc12)CN1CCN([C@@H]2c3ccccc3[C@@H]3[C@H](c4ccccc42)C3(F)F)CC1 [Zosuquidar] + CC(=O)Nc1cccc(-n2c(=O)n(C3CC3)c(=O)c3c(Nc4ccc(I)cc4F)n(C)c(=O)c(C)c32)c1 [Trametinib] (partner 0.02 µM)
# Summary of the method: (§1)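 Relative viability equals treated-well nuclei counts divided by vehicle-well nuclei counts. Counts came from 4× images of lung cancer cell lines grown in 1536-well plates for 5 days after pin-tool dosing on the day after seeding. Dosing used one drug alone or a fixed anchor-drug dose plus five library-drug doses (not always all listed) in √10 steps, and values are medians of duplicate plates.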
# Kobe2602 + Luminespib = compound: C1=CC(=CC=C1NC(=S)NNC2=C(C=C(C=C2[N+](=O)[O-])C(F)(F)F)[N+](=O)[O-])F [Kobe2602] + CCNC(=O)c1noc(-c2cc(C(C)C)c(O)cc2O)c1-c1ccc(CN2CCOCC2)cc1 [Luminespib] (partner 0.01 µM)
# Summary of the method: as §1
# Kobe2602 + Pictilisib = compound: C1=CC(=CC=C1NC(=S)NNC2=C(C=C(C=C2[N+](=O)[O-])C(F)(F)F)[N+](=O)[O-])F [Kobe2602] + CS(=O)(=O)N1CCN(Cc2cc3nc(-c4cccc5[nH]ncc45)nc(N4CCOCC4)c3s2)CC1 [Pictilisib] (partner 1 µM)
# Summary of the method: as §1
# Kobe2602 + Bortezomib = compound: C1=CC(=CC=C1NC(=S)NNC2=C(C=C(C=C2[N+](=O)[O-])C(F)(F)F)[N+](=O)[O-])F [Kobe2602] + CC(C)C[C@H](NC(=O)[C@H](Cc1ccccc1)NC(=O)c1cnccn1)B(O)O [Bortezomib] (partner 0.002 µM)
# Summary of the method: as §1
Cell Line,relative viability (Zosuquidar + Trametinib; first compound 0.01 µM),relative viability (Zosuquidar + Trametinib; first compound 0.03162 µM),relative viability (Zosuquidar + Trametinib; first compound 0.3162 µM),relative viability (Zosuquidar + Trametinib; first compound 1 µM),relative viability (Kobe2602 + Luminespib; first compound 0.2 µM),relative viability (Kobe2602 + Luminespib; first compound 0.6325 µM),relative viability (Kobe2602 + Luminespib; first compound 2 µM),relative viability (Kobe2602 + Luminespib; first compound 6.325 µM),relative viability (Kobe2602 + Luminespib; first compound 20 µM),relative viability (Zosuquidar + Trametinib; first compound 0.1 µM),relative viability (Kobe2602 + Pictilisib; first compound 0.2 µM),relative viability (Kobe2602 + Pictilisib; first compound 0.6325 µM),relative viability (Kobe2602 + Pictilisib; first compound 2 µM),relative viability (Kobe2602 + Pictilisib; first compound 6.325 µM),relative viability (Kobe2602 + Pictilisib; first compound 20 µM),relative viability (Kobe2602 + Bortezomib; first compound 0.2 µM),relative viability (Kobe2602 + Bortezomib; first compound 0.6325 µM),relative viability (Kobe2602 + Bortezomib; first compound 2 µM),relative viability (Kobe2602 + Bortezomib; first compound 6.325 µM),relative viability (Kobe2602 + Bortezomib; first compound 20 µM)
SW 900,0.666,0.715,1.05,0.988,0.164,0.185,0.191,0.166,0.199,,,,,,,,,,,
NCI-H358,0.133,0.132,0.125,0.125,0.364,0.324,0.237,0.477,0.349,0.155,0.301,0.324,0.332,0.39,0.318,,,,,
PC-3 [JPC-3],0.78,0.628,0.692,0.699,0.746,0.799,0.713,0.748,0.649,0.667,0.873,0.74,0.795,0.781,0.671,0.905,0.812,0.766,0.871,0.795
NCI-H1651,0.773,0.803,0.864,0.789,0.673,0.911,0.642,0.758,0.93,0.772,0.691,0.69,0.636,0.537,0.537,0.924,0.961,0.956,0.94,1.01
HCC-827,0.539,0.486,0.535,0.529,0.856,0.793,0.619,0.369,0.831,0.476,1,0.932,0.898,0.981,1.18,1.09,1.15,0.965,1.01,1.08
HCC-366,0.324,0.35,0.46,0.259,,,,,,0.367,0.0894,0.176,0.0839,0.141,0.211,1.13,1.01,1.01,1.07,1.12
HARA,0.833,0.938,1.03,0.541,0.752,1.05,0.688,0.776,0.69,0.772,0.445,0.415,0.375,0.345,0.495,1.17,1.1,0.994,1.14,1.12
NCI-H520,0.71,0.938,0.798,0.68,0.256,0.193,0.224,0.206,0.215,0.598,0.253,0.364,0.255,0.225,0.292,0.612,0.713,0.511,0.593,0.537
NCI-H1299,,,,,,,,,,,0.862,0.957,0.706,0.71,0.916,1.01,0.982,0.986,1.07,0.995
SW 1573,0.613,0.605,0.628,0.544,0.202,0.212,0.21,0.458,0.0872,0.549,0.491,0.457,0.365,0.556,0.486,1.21,0.967,1.06,0.945,1.18
CAL-12T,0.327,0.449,0.442,0.32,0.358,1.01,0.241,0.362,0.233,0.262,0.59,0.556,0.394,0.387,0.548,0.997,1.17,0.921,0.931,0.93
COR-L 105,0.459,0.435,0.266,0.481,0.591,0.896,0.848,0.643,0.719,0.408,0.434,0.433,0.377,0.455,0.387,0.688,1.14,0.739,0.692,0.746
NCI-H3122,0.232,0.258,0.222,0.211,0.074,0.0661,0.0867,0.102,0.0834,0.238,0.575,0.599,0.522,0.583,0.702,1.09,0.96,0.93,1.04,1.08
NCI-H2228,0.438,0.441,0.57,0.505,0.129,0.177,0.198,0.145,0.165,0.423,0.552,0.372,0.334,0.334,0.33,1.11,0.849,0.953,0.947,1.12
RERF-LC-KJ,0.837,0.897,0.857,0.919,1.12,1.17,1.2,1.03,0.515,0.944,0.589,0.643,0.512,0.506,0.493,1.11,1.15,1.15,1.15,1.15
NCI-H441,0.417,0.464,0.557,0.437,0.328,0.374,0.327,0.358,0.296,0.345,0.46,0.495,0.538,0.483,0.409,0.549,0.582,0.527,0.575,0.687
A549,,,,,,,,,,,,0.476,0.487,0.524,0.514,,,,,
NCI-H2342,0.805,0.975,0.873,0.957,0.826,0.735,0.741,0.692,0.773,0.757,,,,,,,,,,

Cell Line,relative viability (Zosuquidar + Trametinib; first compound 0.01 µM),relative viability (Zosuquidar + Trametinib; first compound 0.03162 µM),relative viability (Zosuquidar + Trametinib; first compound 0.3162 µM),relative viability (Zosuquidar + Trametinib; first compound 1 µM),relative viability (Kobe2602 + Luminespib; first compound 0.2 µM),relative viability (Kobe2602 + Luminespib; first compound 0.6325 µM),relative viability (Kobe2602 + Luminespib; first compound 2 µM),relative viability (Kobe2602 + Luminespib; first compound 6.325 µM),relative viability (Kobe2602 + Luminespib; first compound 20 µM),relative viability (Zosuquidar + Trametinib; first compound 0.1 µM),relative viability (Kobe2602 + Pictilisib; first compound 0.2 µM),relative viability (Kobe2602 + Pictilisib; first compound 0.6325 µM),relative viability (Kobe2602 + Pictilisib; first compound 2 µM),relative viability (Kobe2602 + Pictilisib; first compound 6.325 µM),relative viability (Kobe2602 + Pictilisib; first compound 20 µM),relative viability (Kobe2602 + Bortezomib; first compound 0.2 µM),relative viability (Kobe2602 + Bortezomib; first compound 0.6325 µM),relative viability (Kobe2602 + Bortezomib; first compound 2 µM),relative viability (Kobe2602 + Bortezomib; first compound 6.325 µM),relative viability (Kobe2602 + Bortezomib; first compound 20 µM)
NCI-H1623,,,,,0.578,0.427,0.571,0.368,0.491,,,,,,,,,,,
LCLC-97TM1,0.171,0.19,0.21,0.206,0.749,0.718,0.739,0.741,0.819,,0.195,0.18,0.185,0.15,0.167,0.691,0.757,0.501,0.611,0.526
NCI-H2087,0.188,0.192,0.224,0.196,0.226,0.153,0.174,0.143,0.153,0.167,0.86,0.832,0.78,0.841,0.95,0.778,0.626,0.644,0.851,0.83
Calu-6,,,,,,,,,,,0.935,0.931,0.856,0.885,0.882,1.11,1.04,0.945,0.971,0.951
NCI-H522,0.81,0.706,0.723,0.719,1.08,1.25,1.31,1.09,1.03,0.843,,,,,,,,,,
NCI-H1395,1.05,1.01,1.05,1.07,0.691,0.869,0.815,0.726,0.662,,0.612,0.664,0.617,0.65,0.816,,,,,
HCC-78,0.799,,1,0.759,,,,,,,0.246,0.255,,0.212,0.211,0.543,0.574,0.446,0.244,0.57
LK-2,0.822,0.794,0.825,0.89,0.189,0.204,0.182,0.154,0.195,0.735,0.642,0.597,0.534,0.542,0.609,,,,,
NCI-H1944,0.418,0.393,0.429,0.388,0.74,0.801,0.608,0.739,0.645,0.389,0.344,0.381,0.353,0.349,0.374,,,,,
NCI-H1648,0.479,0.454,0.469,0.408,,,,,,0.465,,,,,,,,,,
NCI-H1703,,,,,,,,,,,0.26,0.245,0.225,0.263,0.229,0.371,0.379,0.286,0.367,0.342
EBC-1,,,,,,,,,,,0.365,0.556,0.402,0.378,0.437,0.528,0.479,0.539,0.511,0.612
NCI-H1793,0.423,,0.445,0.434,0.185,0.201,0.217,0.47,0.205,,0.387,0.381,0.32,0.346,0.339,,,,,
NCI-H1563,,,,,0.579,0.492,0.52,0.543,0.512,,0.648,0.697,0.616,0.684,0.653,0.954,1.13,0.71,0.933,0.794
IA-LM,,,,,,,,,,,0.369,0.306,0.338,0.318,0.317,,0.873,0.707,0.765,0.759
ABC-1,,,,,0.785,0.851,,0.494,0.887,,0.821,1.03,0.768,0.923,0.868,0.42,0.256,0.283,0.35,0.336
SK-MES-1,0.616,0.494,0.563,0.549,0.67,0.778,0.853,0.832,0.406,0.535,0.348,0.362,0.346,0.345,0.362,,,,,
NCI-H2170,0.85,0.929,0.952,0.869,0.856,0.922,0.703,0.944,0.719,0.868,0.325,0.327,0.329,0.324,0.344,,,,,
